For one molecule, bioavailability results are on record in ChEMBL document CHEMBL3832031, “DailyMed|setid=d3c528d2-429d-4f37-9ebf-eee8b9fd3050 | TRENTINOIN - tretinoin gel| Oceanside Pharmaceuticals”.

Usually bioavailability stands for the share of a dose that reaches the circulation, judged against a reference dose that is usually intravenous. A low value points to poor availability.

The nature of series [1]: Bioavailability of Tretinoin following multiple topical administration of 0.1 % tretinoin gel to 44 male and female subjects. The series is classed as ADME, organism-based. To be noted: both, human, in vivo, topical or ocular, dosed compound id 14, dosed compound name TRETINOIN, gender male and female, regimen Multiple dose, study dosing duration 28 days, tissue Plasma.

The nature of series [2]: Bioavailability of Tretinoin following single topical administration of 0.1 % tretinoin gel to 44 male and female subjects. The series is classed as ADME, organism-based. The note with it: both, human, in vivo, topical or ocular, dosed compound id 14, dosed compound name TRETINOIN, gender male and female, regimen Single dose, study dosing duration 28 days, tissue Plasma.

Take `CC1=C(/C=C/C(C)=C/C=C/C(C)=C/C(=O)O)C(C)(C)CCC1` [TRETINOIN]: the results for the bioavailability in series [1] and in series [2] were 1.41% and 0.82%, respectively.
